In general, Emax refers to the greatest response seen or fitted, relative to the assay's reference. By EC50 is commonly meant the concentration that produces a half-maximal response.

In data set [1] the target is T1, μ-opioid receptor (Mus musculus, UniProt P42866).
T1 construct: FLAG; expressed in transfected cells
The data set can be described thus: biochemical. Set-up: species or system human. As to conditions: percentage of basal [35S]GTPγS binding stimulation.

Data set [2] deals with T2, δ-opioid receptor (Mus musculus, UniProt P32300).
T2 construct: hemagglutinin (HA); expressed in transfected cells
T2 sequence (P32300 whole entry): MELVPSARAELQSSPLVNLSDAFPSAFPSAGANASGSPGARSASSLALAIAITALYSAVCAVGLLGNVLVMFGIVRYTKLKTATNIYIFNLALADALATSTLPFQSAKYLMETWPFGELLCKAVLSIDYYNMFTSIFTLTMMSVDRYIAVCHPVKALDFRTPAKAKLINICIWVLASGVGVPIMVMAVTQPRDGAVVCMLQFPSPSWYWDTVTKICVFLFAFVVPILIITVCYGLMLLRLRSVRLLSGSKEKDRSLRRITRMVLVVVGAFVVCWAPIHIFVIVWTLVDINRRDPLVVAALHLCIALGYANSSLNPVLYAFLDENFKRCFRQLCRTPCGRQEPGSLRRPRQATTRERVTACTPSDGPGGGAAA
The data set can be described thus: biochemical. Set-up: species or system human. As to conditions: percentage of basal [35S]GTPγS binding stimulation. (In general: GTPγS is a poorly hydrolysed GTP analogue; its binding reports G protein activation.)

Data set [3] concerns the target T3, κ-opioid receptor (Mus musculus, UniProt P33534).
T3 construct: FLAG; expressed in transfected cells
As to the kind of experiment: biochemical. On the set-up: species or system human. The note with it: percentage of basal [35S]GTPγS binding stimulation.

Data set [4] concerns the target T1, μ-opioid receptor. As to the kind of experiment: biochemical. The data set is classed as biochemical, human.
Data set [5] concerns the target T2, δ-opioid receptor. As to the kind of experiment: biochemical. The data set is classed as biochemical, human.
Data set [6] addresses T3, κ-opioid receptor. As to the kind of experiment: biochemical. The data set is classed as biochemical, human.
The target of data set [7] is T4, NOP (nociceptin) receptor (Homo sapiens, UniProt P41146).
T4 sequence (P41146 whole entry): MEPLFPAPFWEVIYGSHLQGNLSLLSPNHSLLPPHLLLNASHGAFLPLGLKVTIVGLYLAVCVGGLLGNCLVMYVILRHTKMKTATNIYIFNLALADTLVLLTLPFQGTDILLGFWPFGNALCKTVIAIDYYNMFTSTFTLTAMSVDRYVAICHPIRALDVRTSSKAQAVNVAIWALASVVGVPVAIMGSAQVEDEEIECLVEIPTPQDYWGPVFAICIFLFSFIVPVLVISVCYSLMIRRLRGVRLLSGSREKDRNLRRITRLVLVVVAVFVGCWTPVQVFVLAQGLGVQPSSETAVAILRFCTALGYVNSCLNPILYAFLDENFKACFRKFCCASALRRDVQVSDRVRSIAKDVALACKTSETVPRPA
Data set [8] deals with T4, NOP (nociceptin) receptor. As to the kind of experiment: Inhibition of basal [35S]GTPγS binding (inverse agonism), NOP. The data set is classed as biochemical. Set-up: FLAG; expressed in transfected cells.
In the next data set the target is T5, CYP2B6 (Homo sapiens, UniProt P20813).
T5 sequence (P20813 1-491): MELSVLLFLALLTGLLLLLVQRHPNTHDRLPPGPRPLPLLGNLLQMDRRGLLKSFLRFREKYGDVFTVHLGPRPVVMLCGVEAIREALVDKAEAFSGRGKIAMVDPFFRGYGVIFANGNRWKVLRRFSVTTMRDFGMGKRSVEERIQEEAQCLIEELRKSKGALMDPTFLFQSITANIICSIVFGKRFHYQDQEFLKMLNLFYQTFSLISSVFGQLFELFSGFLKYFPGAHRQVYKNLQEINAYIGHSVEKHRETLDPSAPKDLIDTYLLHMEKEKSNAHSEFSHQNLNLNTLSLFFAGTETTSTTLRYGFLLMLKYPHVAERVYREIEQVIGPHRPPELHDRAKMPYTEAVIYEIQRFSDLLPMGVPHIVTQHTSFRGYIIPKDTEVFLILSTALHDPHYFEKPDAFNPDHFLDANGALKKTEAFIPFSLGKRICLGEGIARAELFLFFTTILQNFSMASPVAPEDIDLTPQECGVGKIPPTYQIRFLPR
As to the kind of experiment: CYP inhibition, CYP2B6 (Vivid Blue substrate). As to conditions: 10 μM test compound; ND = no detectable inhibition.

The next data set concerns the target CYP2D6 (Homo sapiens, UniProt P10635). As to the kind of experiment: CYP inhibition, CYP2D6 (Vivid Blue substrate). The note with it: 10 μM test compound; ND = no detectable inhibition.
The next data set has as its target CYP2C19 (Homo sapiens, UniProt P33261). As to the kind of experiment: CYP inhibition, CYP2C19 (Vivid Blue substrate). The note with it: 10 μM test compound; ND = no detectable inhibition.
A further data set addresses CYP2C9 (Homo sapiens, UniProt P11712). The data set can be described thus: CYP inhibition, CYP2C9 (diclofenac hydroxylase). As to conditions: 10 μM test compound; ND = no detectable inhibition.
The target of another data set is CYP3A4 (Homo sapiens, UniProt P08684). The data set can be described thus: CYP inhibition, CYP3A4 (testosterone 6-hydroxylation). The note with it: 10 μM test compound; ND = no detectable inhibition.
Chain of CYP3A4 (P08684 whole entry): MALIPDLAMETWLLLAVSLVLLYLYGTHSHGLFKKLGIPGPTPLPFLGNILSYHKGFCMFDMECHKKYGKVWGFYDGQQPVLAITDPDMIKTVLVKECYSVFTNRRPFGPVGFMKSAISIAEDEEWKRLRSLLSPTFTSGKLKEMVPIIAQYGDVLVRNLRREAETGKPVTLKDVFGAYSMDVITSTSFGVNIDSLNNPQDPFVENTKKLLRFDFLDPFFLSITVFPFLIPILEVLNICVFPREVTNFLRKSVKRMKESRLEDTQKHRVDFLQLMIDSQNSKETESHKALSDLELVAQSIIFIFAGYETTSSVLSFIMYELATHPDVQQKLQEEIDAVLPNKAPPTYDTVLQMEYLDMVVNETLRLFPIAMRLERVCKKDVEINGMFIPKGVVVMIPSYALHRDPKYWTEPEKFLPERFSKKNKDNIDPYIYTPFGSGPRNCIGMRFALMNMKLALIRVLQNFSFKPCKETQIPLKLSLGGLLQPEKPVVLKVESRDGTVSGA
Data set [9] addresses T4, NOP (nociceptin) receptor. As to the kind of experiment: Stimulation of [35S]GTPγS binding (agonist activity), NOP. As to conditions: read-out: EC50, NOP, stimulation of [35S]GTPγS binding; cells printed in μM.

T3 sequence (P33534 whole entry): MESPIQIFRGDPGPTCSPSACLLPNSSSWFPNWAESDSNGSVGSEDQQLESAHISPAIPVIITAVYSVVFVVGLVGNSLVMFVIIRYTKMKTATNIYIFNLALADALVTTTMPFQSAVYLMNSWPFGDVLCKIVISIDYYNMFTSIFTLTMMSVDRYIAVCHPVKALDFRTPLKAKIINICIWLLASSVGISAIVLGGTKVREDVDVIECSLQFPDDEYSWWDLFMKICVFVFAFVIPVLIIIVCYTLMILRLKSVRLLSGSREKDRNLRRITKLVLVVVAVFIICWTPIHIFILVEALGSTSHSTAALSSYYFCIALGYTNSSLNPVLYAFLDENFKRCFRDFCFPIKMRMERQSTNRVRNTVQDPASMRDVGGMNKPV
T1 sequence (P42866 whole entry): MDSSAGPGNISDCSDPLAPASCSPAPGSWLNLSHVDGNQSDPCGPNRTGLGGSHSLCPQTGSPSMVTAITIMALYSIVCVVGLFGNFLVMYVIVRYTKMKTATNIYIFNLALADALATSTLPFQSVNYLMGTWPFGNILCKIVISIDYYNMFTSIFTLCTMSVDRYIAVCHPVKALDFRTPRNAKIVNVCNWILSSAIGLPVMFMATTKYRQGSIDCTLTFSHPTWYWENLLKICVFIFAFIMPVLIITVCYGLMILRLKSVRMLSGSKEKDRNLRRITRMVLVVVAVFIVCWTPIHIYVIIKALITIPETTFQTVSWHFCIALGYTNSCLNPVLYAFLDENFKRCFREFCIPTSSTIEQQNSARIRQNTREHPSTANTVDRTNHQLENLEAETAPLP
Chain of CYP2C9 (P11712 whole entry): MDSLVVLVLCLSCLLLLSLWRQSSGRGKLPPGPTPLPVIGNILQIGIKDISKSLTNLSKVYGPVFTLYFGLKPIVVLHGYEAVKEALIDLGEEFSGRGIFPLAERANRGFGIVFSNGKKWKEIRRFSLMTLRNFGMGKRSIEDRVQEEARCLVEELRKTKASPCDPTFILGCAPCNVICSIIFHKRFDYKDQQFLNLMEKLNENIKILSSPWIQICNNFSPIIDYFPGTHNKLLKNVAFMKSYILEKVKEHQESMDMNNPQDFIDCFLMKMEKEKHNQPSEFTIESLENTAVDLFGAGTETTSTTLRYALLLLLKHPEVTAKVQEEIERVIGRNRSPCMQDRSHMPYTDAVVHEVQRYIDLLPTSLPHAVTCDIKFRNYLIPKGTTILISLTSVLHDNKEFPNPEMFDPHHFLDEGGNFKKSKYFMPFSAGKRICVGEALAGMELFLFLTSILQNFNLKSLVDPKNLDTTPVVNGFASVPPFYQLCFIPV
Chain of CYP2D6 (P10635 whole entry): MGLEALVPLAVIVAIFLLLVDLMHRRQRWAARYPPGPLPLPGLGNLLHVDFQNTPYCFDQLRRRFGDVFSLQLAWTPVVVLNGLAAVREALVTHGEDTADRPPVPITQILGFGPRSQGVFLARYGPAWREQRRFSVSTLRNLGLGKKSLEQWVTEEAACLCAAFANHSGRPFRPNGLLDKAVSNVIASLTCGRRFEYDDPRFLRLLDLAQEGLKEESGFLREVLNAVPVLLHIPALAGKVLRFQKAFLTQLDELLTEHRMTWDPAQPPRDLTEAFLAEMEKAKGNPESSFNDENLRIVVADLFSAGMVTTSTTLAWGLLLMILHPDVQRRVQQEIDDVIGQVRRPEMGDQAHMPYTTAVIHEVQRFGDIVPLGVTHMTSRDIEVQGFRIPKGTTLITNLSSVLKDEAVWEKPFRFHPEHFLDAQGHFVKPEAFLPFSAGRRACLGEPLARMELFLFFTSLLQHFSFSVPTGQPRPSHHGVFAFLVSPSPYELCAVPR
Chain of CYP2C19 (P33261 whole entry): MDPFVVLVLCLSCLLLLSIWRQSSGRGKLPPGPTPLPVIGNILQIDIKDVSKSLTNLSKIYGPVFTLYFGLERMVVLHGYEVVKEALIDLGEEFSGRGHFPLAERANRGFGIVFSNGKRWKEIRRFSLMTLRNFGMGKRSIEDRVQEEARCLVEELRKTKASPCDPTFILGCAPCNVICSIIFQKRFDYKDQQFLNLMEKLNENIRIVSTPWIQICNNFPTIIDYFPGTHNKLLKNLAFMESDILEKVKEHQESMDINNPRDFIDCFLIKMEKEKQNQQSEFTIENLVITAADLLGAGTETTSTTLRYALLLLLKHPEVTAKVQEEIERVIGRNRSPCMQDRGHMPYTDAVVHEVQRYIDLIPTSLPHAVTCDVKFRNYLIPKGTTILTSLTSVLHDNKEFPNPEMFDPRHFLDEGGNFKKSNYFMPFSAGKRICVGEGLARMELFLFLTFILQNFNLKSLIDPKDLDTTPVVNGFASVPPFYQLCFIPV

On to `O=C(N[C@@H]1CC[C@@]2(O)[C@H]3Cc4ccc(O)c5c4[C@@]2(CCN3CC2CC2)[C@H]1O5)c1ccc(Cl)c(Cl)c1` [Compound 9, 6-β-(3′,4′-Dichloro)benzamido-14-hydroxy-17-(cyclopropylmethyl)nordesmorphine], for which the “Emax, μ, stimulation of [35S]GTPγS binding” value at μ-opioid receptor [1] is reported as 85 ± 7.4%. In addition, at δ-opioid receptor [2], the “Emax, δ, stimulation of [35S]GTPγS binding” value was determined as 85 ± 35%. Moreover, the “Emax, κ, stimulation of [35S]GTPγS binding” value at κ-opioid receptor [3] is 80 ± 7.4%. Also, the “Emax, μ, inhibition of basal [35S]GTPγS binding” value at μ-opioid receptor [4] was 0%. Further, at δ-opioid receptor [5], the “Emax, δ, inhibition of basal [35S]GTPγS binding” value is on record as 0%. Further, the “Emax, κ, inhibition of basal [35S]GTPγS binding” value at κ-opioid receptor [6] is given as 0%. In [7], this compound came in with an Emax of 0%. Also, in data set [8], the 50% effective concentration (EC50) came to 0.1 nM and the “Emax, NOP, inhibition of basal [35S]GTPγS binding” value was found to be 87 ± 6.9%. Besides, on CYP2B6, the “Percent Inhibition CYP2B6” value is reported as 5%. For the same compound, the “Percent Inhibition CYP2D6” value at CYP2D6 is reported as 10%. On CYP2C19, the “Percent Inhibition CYP2C19” value is 39%. Further, the “Percent Inhibition CYP2C9” value on CYP2C9 is 7%. Further, the “Percent Inhibition CYP3A4” value at CYP3A4 turned out to be 11%. For the same compound, in [9], the EC50 is > 10 µM.

The record behind these values is patent US8778958B2, “Synthesis of metabolically stable agents for alcohol and drug abuse” (priority 2008, dated 2014).
